Literature values, collected in patent US20100209503A1, “Bitter Taste Masking Dosage Form” (priority 2005, published 2010).
Counter-ions that a name gives are not always drawn.

Details: expression of General Notices of Japanese Pharmacopoeia 14th revision

Compound	solubility in water
NC(=O)c1cccnc1 [nicotinic acid amide]	easily soluble (not less than 0.1 g/mL and less than 1.0 g/mL)
CN(C)C(=O)c1nc(CNC(=O)CN)n(-c2ccc(Cl)cc2C(=O)c2ccccc2Cl)n1 [rilmazafone hydrochloride]	slightly soluble (not less than 0.033 g/mL and less than 0.1 g/mL)
Cc1c(C(C)C)c(=O)n(-c2ccccc2)n1C [isopropylantipyrine]	hardly soluble (not less than 0.001 g/mL and less than 0.01 g/mL)
